{"source": "paper PMC7150648", "about": "(ACS infectious diseases, 2020)", "key": {"[1]": {"target": "T1, LasR (Pseudomonas aeruginosa, UniProt P25084)", "settings": "P. aeruginosa LasR reporter; ref [30]; cited from earlier work"}, "[2]": {"target": "T1, LasR", "settings": "result in words; ref Wu et al., FASEB J. 2016; cited from earlier work"}, "[3]": {"target": "LasR S129A mutant (Pseudomonas aeruginosa, UniProt P25084, S129A)", "assay": "E. coli LasR mutant reporter, S129A", "type": "cell-based", "settings": "result in words"}, "[4]": {"target": "RhlR (Pseudomonas aeruginosa, UniProt P54292)", "assay": "E. coli RhlR β-galactosidase reporter", "type": "cell-based", "settings": "result in words"}, "[5]": {"target": "LasR Y56F mutant (Pseudomonas aeruginosa, UniProt P25084, Y56F)", "assay": "E. coli LasR mutant reporter, Y56F", "type": "cell-based", "settings": "result in words"}, "[6]": {"target": "T1, LasR", "assay": "LasR antagonism, P. aeruginosa PAO-JP2 GFP reporter, in competition with OdDHL", "type": "cell-based"}, "[7]": {"target": "T1, LasR", "assay": "LasR agonism, P. aeruginosa PAO-JP2 GFP reporter, compound alone", "type": "cell-based", "settings": "result in words"}, "[8]": {"target": "T1, LasR", "settings": "50 μM compound; 16 h protein production"}, "[9]": {"system": "MexAB-OprM efflux pump", "settings": "P. aeruginosa; ref [16]; cited from earlier work"}, "[10]": {"target": "T1, LasR", "assay": "E. coli LasR β-galactosidase reporter, wild-type LasR", "type": "cell-based", "settings": "result in words"}, "[11]": {"target": "QscR (Pseudomonas aeruginosa, UniProt G3XD77)", "type": "cell-based", "settings": "E. coli reporter; result in words"}, "[12]": {"target": "LasR W60F mutant (Pseudomonas aeruginosa, UniProt P25084, W60F)", "assay": "E. coli LasR mutant reporter, W60F", "type": "cell-based", "settings": "100 μM vs OdDHL at its EC50; result in words"}}, "note": "“Also recorded” adds a separate entry of the source. Where two headings read alike, the source gives them in different places.", "data": [{"smiles": "O=C(Cc1ccc(Br)cc1)N[C@H]1CCOC1=O", "note": "[4-bromo PHL]", "values": [{"measurement": "IC50", "setting": "[1]", "value": 116, "unit": "µM"}]}, {"smiles": "CCCCC[C@H](O)/C=C/C=C\\C=C\\C=C\\[C@@H](O)[C@@H](O)CCCC(=O)O", "note": "[Lipoxin A]", "values": [{"measurement": "IC50", "setting": "[2]", "value": "nanomolar IC50"}]}, {"smiles": "CCCCCCCCCNC(=O)CC(=O)c1ccccc1", "note": "[V-06–018, N-nonyl-3-oxo-3-phenylpropanamide]", "values": [{"measurement": "LasR S129A antagonism compared with wild-type LasR", "setting": "[3]; 100 μM vs OdDHL at its EC50", "value": "significantly lesser extent than wild-type LasR"}, {"measurement": "LasR S129A agonism compared with wild-type LasR", "setting": "[3]; 100 μM", "value": "significantly more than wild-type LasR"}, {"measurement": "activity in RhlR (antagonist or agonist)", "setting": "[4]", "value": "no activity (as either an antagonist or agonist)"}, {"measurement": "LasR Y56F antagonism compared with wild-type LasR", "setting": "[5]; 100 μM vs OdDHL at its EC50", "value": "significantly lesser extent than wild-type LasR"}, {"measurement": "LasR Y56F agonism compared with wild-type LasR", "setting": "[5]; 100 μM", "value": "significantly greater extent than wild-type LasR"}, {"measurement": "IC50", "setting": "[6]", "value": 3.9, "unit": "µM"}, {"measurement": "LasR antagonism, primary screen", "setting": "[6]; PAO-JP2, compound 10 μM vs 150 nM OdDHL", "value": "~ 90%"}, {"measurement": "IC50", "setting": "[6]; PAO-JP2, vs 150 nM OdDHL (approximate EC50)", "value": 2.3, "unit": "µM"}, {"measurement": "Maximum Inhibition", "setting": "[6]; PAO-JP2, vs 150 nM OdDHL, best-fit bottom of dose-response curve", "value": 89, "unit": "%"}, {"measurement": "LasR activation in dose-response agonism curves", "setting": "[7]", "value": "did not activate LasR"}, {"measurement": "soluble (S) LasR band intensity relative to whole cell (WC) band", "setting": "[8]", "value": "~ 7%"}, {"measurement": "active efflux by MexAB-OprM", "setting": "[9]", "value": "not actively effluxed"}, {"measurement": "activity in LasR (antagonist in competition, agonist alone)", "setting": "[10]", "value": "only an antagonist of LasR; also recorded: does not agonize wild-type LasR"}, {"measurement": "activity in QscR (antagonist or agonist)", "setting": "[11]", "value": "only a very weak antagonist; also recorded: only a weak QscR antagonist"}, {"measurement": "LasR W60F antagonism compared with wild-type LasR", "setting": "[12]", "value": "significantly lesser extent than wild-type LasR"}]}]}
